Assay results reported in ChEMBL document CHEMBL6087433, “Discovery of ART0380, a Potent and Selective ATR Kinase Inhibitor Undergoing Phase 2 Clinical Studies for the Treatment of Advanced or Metastatic Solid Cancers” (J Med Chem, 2024).

How the values were obtained:
[1] = target: T1, Serine/threonine-protein kinase mTOR (Homo sapiens, UniProt P42345)
Description: Inhibition of mTOR (unknown origin) by LANCE Ultra assay

[2] = target: T1, Serine/threonine-protein kinase mTOR; remark: listed apart in the source
[3] = in vitro; details: human, human liver microsomes
[4] = target: CYP3A4 (Homo sapiens, UniProt P08684); test: in vitro; details: human liver microsomes, probe midazolam
[5] = target: Serine/threonine-protein kinase ATR (Homo sapiens, UniProt Q13535)
Chain of Serine/threonine-protein kinase ATR (Q13535 whole entry): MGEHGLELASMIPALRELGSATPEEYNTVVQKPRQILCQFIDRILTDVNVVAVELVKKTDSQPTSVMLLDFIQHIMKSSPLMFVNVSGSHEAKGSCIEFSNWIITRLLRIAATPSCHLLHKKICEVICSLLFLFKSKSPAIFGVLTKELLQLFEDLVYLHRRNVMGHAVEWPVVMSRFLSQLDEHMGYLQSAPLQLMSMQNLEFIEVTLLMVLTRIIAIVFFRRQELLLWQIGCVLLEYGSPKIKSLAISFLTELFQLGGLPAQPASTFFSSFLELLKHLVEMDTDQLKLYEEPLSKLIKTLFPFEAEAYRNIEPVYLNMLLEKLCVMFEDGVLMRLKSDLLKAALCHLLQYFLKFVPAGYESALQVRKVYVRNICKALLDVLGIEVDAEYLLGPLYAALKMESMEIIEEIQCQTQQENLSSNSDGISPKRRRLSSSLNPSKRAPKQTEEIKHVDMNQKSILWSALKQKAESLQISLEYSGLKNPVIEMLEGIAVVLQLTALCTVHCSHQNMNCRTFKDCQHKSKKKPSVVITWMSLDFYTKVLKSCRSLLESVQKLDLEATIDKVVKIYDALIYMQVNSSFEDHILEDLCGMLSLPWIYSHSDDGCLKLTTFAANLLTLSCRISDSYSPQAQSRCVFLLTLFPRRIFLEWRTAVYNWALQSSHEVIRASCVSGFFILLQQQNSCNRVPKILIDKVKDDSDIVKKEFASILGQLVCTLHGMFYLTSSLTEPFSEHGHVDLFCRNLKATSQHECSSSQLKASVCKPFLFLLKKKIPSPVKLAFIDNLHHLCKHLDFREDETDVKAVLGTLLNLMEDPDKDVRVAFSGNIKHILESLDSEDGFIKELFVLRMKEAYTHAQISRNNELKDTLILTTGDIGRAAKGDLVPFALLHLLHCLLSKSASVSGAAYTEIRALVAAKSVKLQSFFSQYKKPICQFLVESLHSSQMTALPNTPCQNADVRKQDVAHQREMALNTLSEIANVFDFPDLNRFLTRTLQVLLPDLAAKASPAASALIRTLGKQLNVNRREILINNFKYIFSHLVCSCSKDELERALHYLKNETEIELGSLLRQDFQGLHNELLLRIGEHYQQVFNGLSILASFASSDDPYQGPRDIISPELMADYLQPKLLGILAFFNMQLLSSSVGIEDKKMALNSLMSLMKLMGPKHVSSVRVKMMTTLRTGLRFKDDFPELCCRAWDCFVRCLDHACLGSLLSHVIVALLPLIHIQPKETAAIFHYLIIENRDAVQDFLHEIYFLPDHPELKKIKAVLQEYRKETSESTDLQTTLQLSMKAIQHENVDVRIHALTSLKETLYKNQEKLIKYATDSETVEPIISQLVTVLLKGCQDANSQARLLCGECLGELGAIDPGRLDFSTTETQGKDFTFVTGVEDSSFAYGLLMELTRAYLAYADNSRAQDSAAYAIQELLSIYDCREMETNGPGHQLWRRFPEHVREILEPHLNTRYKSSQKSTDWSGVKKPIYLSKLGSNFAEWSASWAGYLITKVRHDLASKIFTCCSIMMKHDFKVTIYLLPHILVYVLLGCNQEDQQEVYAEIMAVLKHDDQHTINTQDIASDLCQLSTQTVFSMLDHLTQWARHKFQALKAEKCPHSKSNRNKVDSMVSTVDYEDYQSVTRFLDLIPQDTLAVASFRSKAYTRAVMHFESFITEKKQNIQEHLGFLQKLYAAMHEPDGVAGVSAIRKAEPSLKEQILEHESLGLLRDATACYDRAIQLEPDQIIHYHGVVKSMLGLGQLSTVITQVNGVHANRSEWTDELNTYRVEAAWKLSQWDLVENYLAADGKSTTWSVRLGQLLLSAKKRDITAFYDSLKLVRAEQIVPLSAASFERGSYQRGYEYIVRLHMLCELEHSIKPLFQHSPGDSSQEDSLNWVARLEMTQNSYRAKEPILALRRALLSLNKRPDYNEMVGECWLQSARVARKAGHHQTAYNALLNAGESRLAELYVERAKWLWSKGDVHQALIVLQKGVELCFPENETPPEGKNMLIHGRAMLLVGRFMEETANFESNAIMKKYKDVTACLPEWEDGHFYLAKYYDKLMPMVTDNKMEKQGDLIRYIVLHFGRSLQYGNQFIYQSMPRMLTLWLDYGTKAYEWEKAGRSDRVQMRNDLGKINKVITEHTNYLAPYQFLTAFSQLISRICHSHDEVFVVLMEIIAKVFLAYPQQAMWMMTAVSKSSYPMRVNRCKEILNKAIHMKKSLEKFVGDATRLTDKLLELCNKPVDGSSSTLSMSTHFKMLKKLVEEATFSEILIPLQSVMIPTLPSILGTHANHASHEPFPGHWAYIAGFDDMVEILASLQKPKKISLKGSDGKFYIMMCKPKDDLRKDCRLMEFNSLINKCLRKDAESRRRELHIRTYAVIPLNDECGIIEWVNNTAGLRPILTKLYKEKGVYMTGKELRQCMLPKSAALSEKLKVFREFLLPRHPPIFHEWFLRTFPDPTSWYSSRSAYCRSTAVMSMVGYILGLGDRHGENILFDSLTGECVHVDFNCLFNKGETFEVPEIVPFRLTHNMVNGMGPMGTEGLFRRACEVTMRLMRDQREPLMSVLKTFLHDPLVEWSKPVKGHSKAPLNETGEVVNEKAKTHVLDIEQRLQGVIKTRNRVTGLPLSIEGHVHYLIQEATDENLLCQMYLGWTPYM

Chain of CYP3A4 (P08684 whole entry): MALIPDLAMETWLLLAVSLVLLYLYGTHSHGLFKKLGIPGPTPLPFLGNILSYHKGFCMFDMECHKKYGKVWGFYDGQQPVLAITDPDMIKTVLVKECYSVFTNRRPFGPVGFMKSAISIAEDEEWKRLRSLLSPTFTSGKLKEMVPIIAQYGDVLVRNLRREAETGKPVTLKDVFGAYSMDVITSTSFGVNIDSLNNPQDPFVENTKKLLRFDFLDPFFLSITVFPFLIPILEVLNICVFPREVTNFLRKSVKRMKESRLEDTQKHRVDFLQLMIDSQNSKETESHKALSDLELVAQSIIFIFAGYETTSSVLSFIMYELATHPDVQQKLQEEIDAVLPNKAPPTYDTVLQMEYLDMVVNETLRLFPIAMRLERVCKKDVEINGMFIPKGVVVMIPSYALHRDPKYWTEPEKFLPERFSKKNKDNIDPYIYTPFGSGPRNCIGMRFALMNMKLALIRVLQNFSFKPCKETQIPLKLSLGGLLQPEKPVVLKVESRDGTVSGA

SMILES	IC50 [1] [nM]	IC50 [2] [nM]	CLint scaled at 0.75 h, 1 µM [3] [mL/min/kg]	inhibition at 10 µM [4] [%]	IC50 [5] [nM]
CC[S@](C)(=O)=Nc1cc(N2CCOC[C@H]2C)nc(-c2ccnc3[nH]ccc23)n1	891	2160			
COc1cc(-c2nc(N=[S@](C)(=O)C3COC3)cc(N3CCOC[C@H]3C)n2)cc(N)n1	2980	8240	2.4		
Cc1cc2c(-c3nc(N=S(C)(C)=O)cc(N4CCOC[C@H]4C)n3)ccnc2[nH]1	502	3340		56	
Cc1cc(-c2nc(N=S(C)(C)=O)cc(N3CCOC[C@H]3C)n2)cc(N)n1		> 10000			
COc1cc(-c2nc(N=[S@@](C)(=O)C3CC3)cc(N3CCOC[C@H]3C)n2)cc(N)n1	866	7000	7.1		
C[C@@H]1COCCN1c1cc(N2CCCN(C)S2(=O)=O)nc(-c2ccnc3[nH]ccc23)n1	81	420			
C[C@@H]1COCCN1c1cc(N=S(C)(C)=O)nc(-c2ccnc3[nH]ccc23)n1	419	2400			
C[C@@H]1COCCN1c1cc(C2CCCN(S(C)(=O)=O)C2)nc(-c2ccnc3[nH]ccc23)n1 (mixture of isomers)	113	1300			134
C[C@@H]1COCCN1c1cc(N=[S@](C)(=O)C2CC2)nc(-c2ccnc3[nH]ccc23)n1	324	2380			
COc1cc(-c2nc(N=[S@@](C)(=O)C3COC3)cc(N3CCOC[C@H]3C)n2)cc(N)n1	421	5250	13		
CC[S@@](C)(=O)=Nc1cc(N2CCOC[C@H]2C)nc(-c2ccnc3[nH]ccc23)n1	1120	1710			
C[C@@H]1COCCN1c1cc(N=S(C)(=O)C2CCOCC2)nc(-c2ccnc3[nH]ccc23)n1 (mixture of isomers)		6360			
C[C@@H]1COCCN1c1cc(N=[S@@](C)(=O)C2CC2)nc(-c2ccnc3[nH]ccc23)n1	165	1660			
C[C@@H]1COCCN1c1cc(C2CCN(S(C)(=O)=O)CC2)nc(-c2ccnc3[nH]ccc23)n1	217	496			
C[C@@H]1COCCN1c1cc(N=S(C)(C)=O)nc(-c2ccnc3[nH]ccc23)c1	1600	8500			
C[C@@H]1COCCN1c1cc(N=[S@](C)(=O)C2CC2)nc(-c2ccnc3[nH]ccc23)c1	2770	9650			
COc1cc(-c2nc(N=S(C)(C)=O)cc(N3CCOC[C@H]3C)n2)cc(N)n1	2210	8260			
C[C@@H]1COCCN1c1cc(C2CCCS2(=O)=O)nc(-c2ccnc3[nH]ccc23)n1 (mixture of isomers)	274	3900			
C[C@@H]1COCCN1c1cc(N=S(C)(=O)C2COC2)nc(-c2ccnc3[nH]ccc23)n1 (mixture of isomers)	307	2190			
C[C@@H]1COCCN1c1cc(N=[S@@](C)(=O)C2CC2)nc(-c2ccnc3[nH]ccc23)c1	1190	8200			
C[C@@H]1COCCN1c1cc(N=S(C)(C)=O)nc(-c2ccnc(N)c2)n1	4780	15400			
C[C@@H]1COCCN1c1cc(-c2ccnc3[nH]ccc23)nc(N=S(C)(C)=O)n1		> 10000			
C[C@@H]1COCCN1c1cc(N=S(C)(C)=O)nc(-c2ccnc(N)c2)c1		> 10000			875
